Read-outs that look alike come from different tables or passages of the source.

The source of these data is PMC12190736, “Development and In Vitro Characterization of [^3H]GMC-058 as Radioligand for Imaging Parkinsonian-Related Proteinopathies” (Cells, 2025).

In one assay the target is tau fibrils (Homo sapiens, UniProt P10636). As to the kind of experiment: [^3H]NFT-355 binding displacement on AD brain homogenates. Conditions: AD brain homogenate, 0.5 nM [^3H]NFT-355. Here is the method: (§1) Compounds’ affinity for tau and Aβ fibrils was measured by means of radioligand binding displacement experiments on AD brain homogenates, using [^3H]NFT-355 [8] (AbbVie, North Chicago, IL, USA) and [^3H]Pittsburg Compound-B (PiB; Novandi Chemistry AB, Södertälje, Sweden) to label tau and Aβ aggregates, respectively. Flash-frozen tissue from the frontal cerebral cortex of an AD (Braak stage V) brain was purchased from Analytical Biological Services Inc. (ABS; Wilmington, DE, USA), homogenized in DPBS, divided into aliquots (10 mg/mL), and stored at −80 °C until the day of the experiment.
(§2) On the day of the experiment, the brain homogenate was brought to RT, diluted in DPBS plus 0.1% BSA and incubated for 90 min, at RT, with 0.5 nM [^3H]NFT-355 or 1 nM [^3H]PiB, in the absence or presence of different concentrations of non-radiolabeled compounds. Bound radioligand was separated from free radioligand via rapid filtration and washings with cold DPBS, using a Unifilter-96 GF/B filter plate (presoaked in 0.3% PEI) and a Unifilter Cell Harvester (PerkinElmer). Plates were air-dried, and the scintillation liquid (Betaplate Scint, PerkinElmer) was added and counted using a MicroBeta2 2450. NSB was defined as the binding in the presence of 10 µM T808 [10] (AbbVie Germany) and 10 µM PiB for [^3H]NFT-355 and [^3H]PiB, respectively. Data fitting was performed using the software platform from Dotmatics (Boston, MA, USA).

Assay [1] addresses recombinant α-syn fibrils (Homo sapiens, UniProt P37840). The experiment in a line: Radioligand binding displacement of [^3H]-α-syn-tool on α-syn fibrils. Conditions: 5 nM [^3H]-α-syn-tool. Here is the method:
Compound affinity for α-syn fibrils was measured by means of radioligand binding displacement experiments of an AbbVie tool radioligand with high affinity for α-syn fibrils ([^3H]-α-syn-tool). The aggregation of α-syn monomers into fibrils was obtained as described by Bousset et al.. In brief, monomers (5 mg/mL, prepared in AbbVie (Worcester, MA, USA) were incubated in 150 mM of KCl and 50 mM of Tris-HCl (pH 7.5) for 7 days at 37 °C, under constant shaking conditions (650 rpm, Eppendorf Thermomixer C, Eppendorf, Hamburg, Germany). After incubation, the fibrils were harvested via ultra-centrifugation (40,100× g, 30 min, 20 °C), resuspended in buffer, sonicated (40% amplitude, 10 s pulse on, 5 s pulse off) for 4.5 min at 20 °C, divided into aliquots (5.5 mg/mL), and stored at −80 °C until the day of the experiment. The characterization of the fibrils included protein content determination (BCA method) and an analysis of Proteinase K degradation pattern.
On the day of the experiment, α-syn fibrils were thawed for a few minutes at 37 °C, diluted in Dulbecco’s Phosphate Buffered Saline (PBS) without calcium and magnesium, pH = 7.4 (DPBS) plus 0.1% bovine serum albumin (BSA), and incubated (at the final fibrils concentration of 2.5 µg/mL) for 60 min, at room temperature (RT), with 5 nM [^3H]-α-syn-tool, in the absence or presence of different concentrations of non-radiolabeled compounds. Bound radioligand was separated from free radioligand via rapid filtration and washings with cold DPBS, using a Unifilter-96 GF/B filter plate (PerkinElmer, Rodgau, Germany) presoaked in 0.3% polyethylenimmine (PEI) and a Unifilter Cell Harvester (PerkinElmer, Rodgau, Germany). Plates were air-dried, and the scintillation liquid (Betaplate Scint, PerkinElmer) was added and counted using a MicroBeta2 2450 (Perkinelmer, Rodgau, Germany). Non-specific binding (NSB) was defined as the binding in the presence of 10 µM unlabeled α-syn tool. Data fitting and the constant of inhibition (Ki) calculation was performed using the software platform from Dotmatics (Boston, MA, USA).

The next assay addresses Aβ fibrils (Homo sapiens, UniProt P05067). As to the kind of experiment: [^3H]PiB binding displacement on AD brain homogenates. The following applies: AD brain homogenate, 1 nM [^3H]PiB. The procedure: as §1, §2
Assay [2] has as its system fresh-frozen human brain sections. As to the kind of experiment: Autoradiography on fresh-frozen brain tissue sections. Format: binding. The following applies: for NSB: 5 µM GMC044; for NSB / Total Minus NSB / Total binding: gray matter of cingulate cortex, control C03; for Binding displaced by GMC-044: 5 µM GMC-044, control cingulate cortex tissue; for Binding in control tissue: cingulate cortex of healthy controls. The procedure:
Selections of frozen human sections (described in Table 2 and Table 3) were used for binding autoradiography. Sections were first pre-incubated for 20 min in binding buffer [50 mM Tris-HCl (pH 7.4), 120 mM NaCl, 5 mM KCl, 2 mM CaCl2, 1 mM MgCl2, and 0.1% BSA] and then incubated with [^3H]GMC-058 (specific activity 22 Ci/mmol); [^3H]GMC-073 (specific activity 23.4 Ci/mmol); or […] in binding buffer for 180 min at RT. In the pilot autoradiography experiment (Figure A1). [^3H]GMC-058 was tested at 25 and 50 nM, while [^3H]GMC-073 and [^3H]GMC-098 were each tested at 10 and 20 nM. For all other autoradiography in fresh-frozen tissue sections, 25 nM [^3H]GMC-058 was used. To determine NSB, adjacent brain sections were incubated with [^3H]-tracer mixed with 5 μM of unlabeled GMC-044. The binding reaction was stopped with two 10 min washes in washing buffer [50 mM Tris-HCl (pH 7.4) at 4 °C] and a brief dip in cold distilled water. Slides were allowed to air-dry before being placed under storage phosphor screens (Fujifilm Plate BAS-TR2025, Fujifilm, Tokyo, Japan) in imaging cassettes for 90 h together with ART0123C and ART0123B tritium standards on glass slides (American Radiolabeled Chemicals Inc., St. Louis, MO, USA). Storage phosphor screens were scanned using an Amersham Typhoon FLA-9500 phosphor imaging scanner (Cytiva, Marlborough, MA, USA), and the resulting images were analyzed using Multi Gauge 3.2 phosphor imager software (Fujifilm, Tokyo, Japan) for ROI delimitation, density calibration, and quantification. Quantitative binding data from duplicates of the total, and NSB were plotted and analyzed using graphPad Prism v10 (GraphPad Software, Boston, MA, USA). Specific binding was determined by subtracting the non-specific signal from the total signal. The toluidine blue staining of adjacent sections was used to obtain anatomical references for white- and gray-matter ROI selection. Care was taken not to include artifact signals in the ROIs analyzed. These artifacts were identified as randomly placed punctate signals appearing in both total and NSB images, and they often coincided with small folds or tears in the tissue sections.

In the next assay the target is pTau. Conditions: AD; read-out: IC50 or KD pTau; cited from earlier work.
For a further assay, the target named is Aβ. Conditions: AD; read-out: IC50 or KD Aβ; cited from earlier work.
For another assay, the target named is α-syn. Conditions: cited from earlier work.

tau fibrils, sequence (P10636 623-708 limits assumed): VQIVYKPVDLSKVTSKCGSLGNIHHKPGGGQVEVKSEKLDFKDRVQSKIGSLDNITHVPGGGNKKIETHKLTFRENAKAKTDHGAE
Aβ fibrils, sequence (P05067 672-711 limits assumed): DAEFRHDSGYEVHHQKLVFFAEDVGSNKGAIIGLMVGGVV

As usually defined, the Ki is the dissociation constant of the complex between target and ligand, obtained from inhibition or displacement. Regarding `COc1ccc(/C=C/c2ccc(N3CCN(c4ccc(C#N)cn4)CC3)cc2)cn1` [GMC013_FR-1], the Ki was determined as 151 nM at tau fibrils, 25.5 nM in assay [1] and 63 nM on Aβ fibrils.
As to `COc1ccc(-c2ccc(NC(=O)N3CCN(c4ccccn4)CC3)cc2C#N)cc1` [GMC015], the Ki on tau fibrils came to 761 nM; in assay [1], 28.3 nM; at Aβ fibrils, 294 nM.
Take `O=C(Nc1ccc(N2CCN(Cc3ccc(Cl)c(Cl)c3)CC2)cc1)c1cnccn1` [GMC021]: the inhibitory constant (Ki) at tau fibrils was determined as 2510 nM; in assay [1], 22.2 nM; at Aβ fibrils it was 889 nM.
As to `COc1ccccc1CC(=O)Nc1ccc(N2CCN(c3ccc(C#N)cn3)CC2)cc1` [GMC023], the inhibitory constant (Ki) at tau fibrils was 44 nM; in assay [1] it was 21.2 nM; at Aβ fibrils it was 151 nM.
Taken in the same sequence, the figures for `COc1cccc(CC(=O)Nc2ccc(N3CCN(c4ccc(C#N)cn4)CC3)cc2)c1` [GMC024] were 68 nM, 25.3 nM and 81 nM.
As for `COc1ccc(CC(=O)Nc2ccc(N3CCN(c4ccc(C#N)cn4)CC3)cc2)cc1` [GMC025], the Ki on tau fibrils was found to be 50 nM; in assay [1], 29.7 nM; at Aβ fibrils, 141 nM.
On to `C[C@@H](C(=O)Nc1ccc(N2CCN(c3ccc(C#N)cn3)CC2)cc1)c1ccccc1` [GMC044], for which the figures for the Ki (on tau fibrils; in assay [1]; at Aβ fibrils) were 692 nM, 25.2 nM and 3440 nM, respectively.
For `COc1ccccc1NC(=O)Nc1ccc(N2CCN(c3ccccn3)CC2)cc1` [GMC070] the same measures were 90 nM, 6.8 nM and 64 nM.
Take `COc1ccccc1NC(=O)Nc1ccc(N2CCN(c3ccccn3)CC2)c(C#N)c1` [GMC071]: the figures for the Ki (at tau fibrils; in assay [1]; on Aβ fibrils) were 86 nM, 14.2 nM and 8180 nM, respectively.
Taken in the same sequence, the figures for `COc1ccccc1CC(=O)Nc1ccc(N2CCN(c3ccc(F)cc3)CC2)nc1` [GMC079] were 2510 nM, 23.9 nM and 404 nM.
With `COc1ccccc1CC(=O)Nc1ccc(N2CCN(c3ccc(F)cc3)CC2)cc1C#N` [GMC086], the Ki on tau fibrils is 26 nM; in assay [1] it was 15.2 nM; on Aβ fibrils, 809 nM.
Turning to `COc1ccc(-c2ccc(NC(=O)N3CCN(c4ccc(C#N)cn4)CC3)cc2C#N)cc1` [GMC095], the inhibitory constant (Ki) at tau fibrils was 2510 nM; in assay [1] it was 14.5 nM; on Aβ fibrils, 2630 nM.
For `COc1ccc(-c2ccc(NC(=O)N3CCN(c4ccc(OC)cc4)CC3)cc2C#N)cc1` [GMC096] the same measures were 2510 nM, 6.5 nM and 51 nM.
For `COc1ccc(N2CCN(c3ccc(NC(=O)C(C)(C)C)cc3)CC2)cc1` [GMC-058], the values for the Ki (at tau fibrils; in assay [1]; on Aβ fibrils) were 1320 nM, 22.5 nM and 1490 nM, respectively.
For `COc1ccccc1NC(=O)Nc1ccc(N2CCN(c3ccc(F)cc3)CC2)c(C#N)c1` [GMC-073], the Ki on tau fibrils is 248 nM; in assay [1] it was 8 nM; at Aβ fibrils it was 2630 nM.
For `COc1ccc(-c2ccc(NC(=O)N3CCN(c4ccccc4)CC3)cc2C#N)cc1` [GMC-098] the same measures were 805 nM, 9.7 nM and 226 nM.
As to `[3H]c1cccc(NC(=O)Nc2ccc(N3CCN(c4ccc(F)cc4)CC3)c(C#N)c2)c1OC` [[^3H]GMC-073, 1-(3-cyano-4-(4-(4-fluorophenyl)piperazin-1-yl)phenyl)-3-(2-methoxy-[3-3H]-phenyl)urea], in assay [2] (10 nM radioligand), the NSB is given as 346.9 ± 14.5 fmol/mg tissue equivalent, the “Total Minus NSB” value worked out at 318 fmol/mg and the Total binding was 664.6 ± 24.3 fmol/mg tissue equivalent. Besides, in assay [2] (20 nM radioligand), the NSB is on record as 1022 ± 45 fmol/mg tissue equivalent, the “Total Minus NSB” value amounted to 848 fmol/mg and the Total binding was 1870 ± 100.2 fmol/mg tissue equivalent. In assay [2], the “Binding displaced by GMC-044” value is given as “approximately 50%” and the “Binding in control tissue” value is given as “clear binding”.
`[3H]c1ccc(N2CCN(C(=O)Nc3ccc(-c4ccc(OC)cc4)c(C#N)c3)CC2)cc1` [[^3H]GMC-098, N-(2-cyano-4′-methoxy-[1,1′-biphenyl]-4-yl)-4-([4-3H]phenyl)piperazine-1-carboxamide]: in assay [2] (10 nM radioligand), the NSB was determined as 1878 ± 74.1 fmol/mg tissue equivalent, the “Total Minus NSB” value is 827 fmol/mg and the Total binding turned out to be 2705 ± 62.2 fmol/mg tissue equivalent. In assay [2] (20 nM radioligand), the NSB came to 2336 ± 48.5 fmol/mg tissue equivalent, the “Total Minus NSB” value is recorded as 2810 fmol/mg and the Total binding is 5146 ± 386.2 fmol/mg tissue equivalent. Moreover, in assay [2], the “Binding displaced by GMC-044” value is “approximately 50%” and the “Binding in control tissue” value is listed as “clear binding”.
For orientation: Kd means the constant that tells how readily two partners part at equilibrium. Take `O=C1c2cn(-c3ccc(N4CC[C@@H](F)C4)nc3)nc2CN1c1cccnc1` [[^18F]ACI-12589]: the Kd is 317 nM on pTau; 317 nM on Aβ; 28 nM on α-syn (MSA, read-out: IC50 or KD α-syn (converted)); around 30 nM on α-syn (PD and MSA tissue, read-out: KD); 33.5 ± 17.4 nM at α-syn (sporadic PD, read-out: IC50 or KD α-syn (converted)).
One may read the IC50 as the point on the concentration scale where inhibition reaches its midpoint. Take `CNc1cnc(C#C/C=C/c2nc3ccc(OCC(O)CF)cc3s2)cn1` (centres unmarked) [[^18F]SPAL-T-06]: the 50% inhibitory concentration (IC50) was 2.5 nM in the assay on α-syn (MSA, read-out: IC50 or KD α-syn) and 2 to 3 nM in the assay on α-syn (brain homogenates from DLB or MSA cases, homologous competition binding studies, read-out: IC50).
